# Test results taken from paper PMC6271500, “Bowman-Birk Protease Inhibitor from Vigna unguiculata Seeds Enhances the Action of Bradykinin-Related Peptides” (Molecules, 2014).
# How the values were obtained:
# BTCI [1] = experiment: Dynamic light scattering, BTCI-Bk complex formation; format: binding, Vigna unguiculata
# Description: The hydrodynamic properties of the BTCI through the complex formation with Bk and analogues were monitored using DLS technique with laser source operated at 800 nm on the DynaPro LSR model (Wyatt Technology Corporation, Santa Barbara, CA, USA). The internal temperature was controlled by a Peltier system coupled to the detector. The Bk, Bk-related peptides, BTCI and BTCI-Bk, BTCI-Bk-related peptides complexes, were incubated for 30 minutes in 2 mM Tris-HCl pH 7.4 and then centrifuged at 5000 g and filtered ([…]) before the DLS experiments. The average of 100 acquisitions for each measure was considered for BTCI (25 µM) and synthetic Bk-related peptides (25 µM) separately and subsequently for the BTCI-Bk complexes (1:1). The formation of complexes was analyzed at 37 °C, considering the relationship of the scattered light intensity signal and the hydrodynamic diameter of the samples, using the Dynamics V6 program (Wyatt Technology Corporation).
# BTCI [2] = experiment: Fluorescence quenching of BTCI by Bk-related peptides; format: binding, Vigna unguiculata; settings: for Binding constant Kb (association) of BTCI in complex with peptide / Stern-Volmer quenching constant KSV of BTCI in complex with peptide: BTCI 25 µM, peptide 25-500 µM; for Stern-Volmer quenching constant KSV of BTCI in complex with peptide: excitation 295 nm, emission at 355 nm
# Description: Fluorescence measurements were performed at pH 5.0, 7.4 and 9.0 and 25 °C using the Jasco FP-6500 spectrofluorimeter (Jasco Analytical Instruments) coupled to a Jasco ETC-273T Peltier system (Jasco Analytical Instruments) with water circulation. Both excitation and emission slit were fitted to 5.0 nm and the excitation and emission wavelength were 295 nm and 300–400 nm, respectively. The concentration of BTCI was 25 µM, whereas the concentration of Bk and Bk-related peptides varied from 25 to 500 µM. The BTCI in complex with peptides were investigated by fluorescence quenching as a function of pH. The averages of five fluorescence spectra were recorded and processed by the program Spectra Manager (Jasco Analytical Instruments). The fluorescence emissions were fitted according to the classic Stern-Volmer equation (Equation (2)): F0/F = 1 + KSV[Q] (2) where F and F0 are the fluorescence intensities in the presence and absence of quencher, respectively, KSV is Stern-Volmer constant and Q is the concentration of the quencher.
# The binding constants for BTCI, Bk and Bk-related peptides interaction were calculated according to Equation (3): Log[(F0 − F)/F] = LogKb + nLog[Q] (3) where Kb is the binding constant and n is the number of binding sites per BTCI [47].
# [3] = system: bovine pancreatic trypsin; experiment: Trypsin inhibition by BTCI (BAPNA substrate); format: biochemical; settings: BTCI 10 µM, peptide 0–10 µM
# Description: (§1) The inhibitory activities of BTCI against bovine pancreatic trypsin (25 kDa; A280^1% = 15.90) and chymotrypsin (24 kDa; A280^1% = 20.40) (Sigma Co.) were first determined in the absence of Bk and Bk-related peptides. Briefly, the residual enzymatic activities were assayed by mixing 40 µL of chymotrypsin (28.60 µM) or trypsin (2.57 µM) with BTCI at concentration range of 0–10 µM for trypsin and 0–40 µM for chymotrypsin at 25 °C for 15 minutes. After that, 200 µL of 0.40·mg·mL^−1 N-glutaryl-L-phenylalanine-p-nitroanilide (GPNA) in 50 mM Tris-HCl, 20 mM CaCl2, pH 7.6 for chymotrypsin assay or 0.43 mg·mL^−1 Nα-benzoyl-DL-arginine 4-nitroanilide hydrochloride (BAPNA) in 50 mM Tris-HCl, 20 mM CaCl2, pH 8.2 for trypsin assay were added. Substrate hydrolysis was done for 15 minutes and stopped by adding 30% (v/v) acetic acid. The enzymatic assays were also carried out in the presence of Bk at similar concentration of BTCI. The relative enzymatic activities were evaluated by the liberation of p-nitroanilide, which was monitored at 410 nm using a SpectraMax Plus 384 Microplate Reader spectrophotometer (Molecular Devices, Sunnyvale, CA, USA). The obtained values are an average of three independent measurements. Inhibition curves were obtained by plotting relative activities of the proteases vs. BTCI concentration in the absence or presence of Bk and Bk-related peptides. […]
# bovine chymotrypsin = experiment: Chymotrypsin inhibition by BTCI (GPNA substrate); format: biochemical; settings: BTCI 40 µM, peptide 0–10 µM
# Description: as §1
# [4] = system: guinea pig (Cavia porcellus) ileum; experiment: Smooth muscle constriction force assay, guinea pig ileum
# Description: Male guinea pigs (Cavia porcellus) weighing between 200 and 300 g and fasted for 24 h were euthanized using an overdose of anesthetic at 120 mg/kg (ketamine and xylazine). The protocol was approved by the Committee on the Ethics of Animal Experiments of the Institute of Biology, University of Brasilia (Proc. Number 737402/2008). Segments of 2 cm from the terminal portion of the ileum were removed and washed in Tyrode’s solution (g/L: 8.00 NaCl,0.20 KCl, 0.20 CaCl2, 0.21 MgCl2), and attached to a glass rod that was immersed in a physiological bath chamber with a capacity of 10 mL containing Tyrode solution at 37 °C. In the opposite region, a thread of silk was attached to the F-60 isometric transducer connected to a polygraph (NARCO Bio-Systems, Houston, TX, USA). The bath was kept aerated constantly with carbogen (95% O2 + 5% CO2). Previously, as a control, smooth muscle response was analyzed using Bk from Sigma Aldrich. Experiments were done in triplicate, and constriction force was analyzed by addition of Bk and analogues in the absence or presence of BTCI, in three concentrations: 1, 5 or 10 µM. The hypotensive effects of the complexes were also evaluated in the presence of trypsin or chymotrypsin. After each experiment, the bath solution was exchanged three times in order to remove the drug used. Statistical analysis was carried out using the Paleontological Statistics (PAST) Software Package for Education and Data Analysis. A value of Student’s t-test p < 0.05 was considered to denote a significant difference.
substance,measurement,setting,value
[Val]^1[Thr]^6-bradykinyl-Gln-Ser [Bk2],polydispersity of peptide complexed with BTCI (in words),"BTCI [1]; 1:1 complex, pH 7.4, 37 °C",moderate polidispersity
same,hydrodynamic diameter of BTCI in the presence of peptide,"BTCI [1]; BTCI 25 µM : peptide 25 µM (1:1), 30 min, 2 mM Tris-HCl pH 7.4, 37 °C",increased from 1.7 nm to 3.3 nm
same,binding sites (n) per BTCI molecule,"BTCI [2]; pH 5.0, 25 °C",1.04
same,Binding constant Kb (association) of BTCI in complex with peptide,"BTCI [2]; pH 5.0, 25 °C",590 M⁻¹
same,Stern-Volmer quenching constant KSV of BTCI in complex with peptide,"BTCI [2]; pH 5.0, 25 °C",425 M⁻¹
same,binding sites (n) per BTCI molecule,"BTCI [2]; pH 7.4, 25 °C",0.89
same,Binding constant Kb (association) of BTCI in complex with peptide,"BTCI [2]; pH 7.4, 25 °C",220 M⁻¹
same,Stern-Volmer quenching constant KSV of BTCI in complex with peptide,"BTCI [2]; pH 7.4, 25 °C",509 M⁻¹
same,binding sites (n) per BTCI molecule,"BTCI [2]; pH 9.0, 25 °C",1.23
same,Binding constant Kb (association) of BTCI in complex with peptide,"BTCI [2]; pH 9.0, 25 °C",1810 M⁻¹
same,Stern-Volmer quenching constant KSV of BTCI in complex with peptide,"BTCI [2]; pH 9.0, 25 °C",384 M⁻¹
same,effect of peptide on BTCI inhibition of trypsin,[3],did not interfer in their activities
same,effect of peptide on BTCI inhibition of chymotrypsin,bovine chymotrypsin,did not interfer in their activities
same,contraction force relative to Bk,"[4]; 10 µM, after activation by trypsin treatment",approximately 1.3 fold
same,smooth muscle contraction when pretreated with BTCI and serine proteases,[4]; data not shown,did not induce muscle contraction
same,smooth muscle contraction,"[4]; free peptide, 1, 5, 10 µM, 37 °C, triplicate",unable to exert their contractive effects
same,smooth muscle contraction after trypsin pretreatment,"[4]; peptide pretreated with trypsin, 1.0, 5.0, 10.0 µM","induced smooth muscle contraction, in a concentration-responsive manner (Figure 7), and at higher levels than Bk in free state"
